Strand notation (5' to 3'): a small letter for the sugar, then the base; units joined by * are phosphorothioate-linked, units joined directly phosphodiester-linked; [ ] holds rarer units or linkages, { } end groups; capitals alone tell only the bases. e = 2'-O-(2-methoxyethyl) (MOE); [5mC] = 5-methylcytosine; d = 2'-deoxy (DNA)
Tests used:
human PKK mRNA = assay: Antisense inhibition of human PKK mRNA in HepaRG cells, 3,000 nM (Example 1); type: cell-based; settings: Table 4; HepaRG cells, electroporation with 3,000 nM antisense oligonucleotide, approx. 24 hours; PKK mRNA by RT-PCR (RTS3454), relative to untreated control cells
How it was run: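 Values give percent PKK mRNA reduction relative to untreated controls, normalised to RIBOGREEN total RNA. mRNA was quantified by real-time PCR (RTS3454) about 24 h after electroporation. Each 20-mer MOE gapmer was delivered at 3,000 nM into 20,000 HepaRG cells per well.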

murine PKK mRNA = assay: PKK mRNA in BALB/c mice liver (Example 10); type: in vivo, mouse; settings: for % inhibition of PKK mRNA in BALB/c mice liver: twice a week for 3 weeks, relative to PBS control
Protocol: ISIS 482584 was tested for its effect on murine PKK mRNA in vivo.
(§1) Six groups of male BALB/c mice each were treated with 2.5 mg/kg, 5.0 mg/kg, 10.0 mg/kg, 20.0 mg/kg, 40.0 mg/kg, or 80.0 mg/kg of ISIS 482584, administered subcutaneously twice a week for 3 weeks (weekly doses of 5.0 mg/kg, 10.0 mg/kg, 20.0 mg/kg, 40.0 mg/kg, 80.0 mg/kg, or 160.0 mg/kg). A control group of BALB/c mice was treated with PBS, administered subcutaneously twice a week for 3 weeks. Two days after the last dose of antisense oligonucleotide or PBS, mice from all groups were anesthetized with 150 mg/kg ketamine mixed with 10 mg/kg xylazine, administered by intraperitoneal injection. Liver was collected for RNA analysis.
RNA was extracted from liver tissue for real-time PCR analysis of PKK. PKK mRNA levels were measured using the murine primer probe set (forward sequence […], designated herein as SEQ ID NO: 2231; reverse sequence […], designated herein as SEQ ID NO: 2232; probe sequence […], designated herein as SEQ ID NO: 2233). Results are presented as percent inhibition of PKK, relative to PBS control.

PKK protein [1] = assay: PKK protein in BALB/c mice plasma by immunoblot (Example 10); type: in vivo, mouse; settings: for % inhibition of PKK protein in BALB/c mice plasma: twice a week for 3 weeks, relative to PBS control
Protocol: as §1
Plasma was collected in tubes containing sodium citrate as an anticoagulant. The samples were run on a 4-12% gradient SDS-polyacrylamide gel (Invitrogen), followed by immunoblotting with murine PKK antibody (R&D Systems). Blots were incubated with secondary fluorophore-labeled antibodies (LI-COR) and imaged in an Odyssey Imager (LI-COR). Results are presented as percent inhibition of PKK, relative to PBS control.

PKK protein [2] = assay: Plasma PKK protein levels in human KLKB1 transgenic mice (Example 7); type: in vivo; settings: transgenic mice
How it was run: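 Human KLKB1 transgenic mice dosed subcutaneously twice weekly for 3 weeks with antisense oligonucleotides at 2.5, 5.0, 10 or 20 mg/kg/week. Plasma collected 48 hours after the final dose; PKK protein expressed as percent inhibition relative to PBS-treated controls.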

PKK protein [3] = assay: PKK protein in cynomolgus monkey plasma by ELISA (Example 8); type: in vivo; settings: 40 mg/kg sc
Protocol: Approximately 0.9 mL of blood was collected each time from all available animals at pre-dose, day 17, day 31, day 45, day 59, and day 73, and placed in tubes containing 3.2% sodium citrate. The tubes were centrifuged (3000 rpm for 10 min at room temperature) to obtain plasma. PKK protein levels were measured in the plasma by ELISA. The results are presented in Table 52, expressed as percentage inhibition compared to the PBS control levels.

[4] = BALB/c mice, 2.5-80.0 mg/kg s.c. twice a week for 3 weeks, vs PBS

531231 (eT*eA*eT*e[5mC]*eA*d[5mC]*dT*dG*dT*dA*d[5mC]*dT*dA*dG*dT*eT*eT*e[5mC]*e[5mC]*eT) [compound 531231]
% inhibition (human PKK mRNA): 94%

ISIS 482584: 5-10-5 MOE gapmer targeting murine PKK, GGCATATTGGTTTTTGGAAT; SEQ ID NO: 2244 (antisense eG*eG*e[5mC]*eA*eT*dA*dT*dT*dG*dG*dT*dT*dT*dT*dT*eG*eG*eA*eA*eT)
% inhibition of PKK mRNA in BALB/c mice liver (murine PKK mRNA; 5 mg/kg/wk sc): 3% | % inhibition of PKK mRNA in BALB/c mice liver (murine PKK mRNA; 10 mg/kg/wk sc): 42% | % inhibition of PKK mRNA in BALB/c mice liver (murine PKK mRNA; 20 mg/kg/wk sc): 68% | % inhibition of PKK mRNA in BALB/c mice liver (murine PKK mRNA; 40 mg/kg/wk sc): 85% | % inhibition of PKK mRNA in BALB/c mice liver (murine PKK mRNA; 80 mg/kg/wk sc): 91% | % inhibition of PKK mRNA in BALB/c mice liver (murine PKK mRNA; 160 mg/kg/wk sc): 94% | reduction of PKK mRNA in liver (murine PKK mRNA; [4]): significant dose-dependent reduction of PKK mRNA | % inhibition of PKK protein in BALB/c mice plasma (PKK protein [1]; 5 mg/kg/wk sc): 5% | % inhibition of PKK protein in BALB/c mice plasma (PKK protein [1]; 10 mg/kg/wk sc): 24% | % inhibition of PKK protein in BALB/c mice plasma (PKK protein [1]; 20 mg/kg/wk sc): 47% | % inhibition of PKK protein in BALB/c mice plasma (PKK protein [1]; 40 mg/kg/wk sc): 76% | % inhibition of PKK protein in BALB/c mice plasma (PKK protein [1]; 80 mg/kg/wk sc): 81% | reduction of PKK plasma protein (PKK protein [1]; [4]): significant dose-dependent reduction of PKK plasma protein

Tes Ges mCes Aes Aes Gds Tds mCds Tds mCds Tds Tds Gds Gds mCds Aes Aes Aes mCes Ae [ISIS 546254]
human PKK protein inhibition (PKK protein [2]; 2.5 mg/kg/week s.c. twice a week for 3 weeks): 0% | human PKK protein inhibition (PKK protein [2]; 5.0 mg/kg/week s.c. twice a week for 3 weeks): 36% | human PKK protein inhibition (PKK protein [2]; 10 mg/kg/week s.c. twice a week for 3 weeks): 51% | human PKK protein inhibition (PKK protein [2]; 20 mg/kg/week s.c. twice a week for 3 weeks): 76% | PKK protein level reduction (%) in plasma relative to control levels (PKK protein [3]; Day 17): 38% | PKK protein level reduction (%) in plasma relative to control levels (PKK protein [3]; Day 31): 51% | PKK protein level reduction (%) in plasma relative to control levels (PKK protein [3]; Day 45): 63% | PKK protein level reduction (%) in plasma relative to control levels (PKK protein [3]; Day 59): 74% | PKK protein level reduction (%) in plasma relative to control levels (PKK protein [3]; Day 73): 73%

— patent publication US11840686B2, “Modulation of prekallikrein (PKK) expression” (Ionis Pharmaceuticals, Inc., priority 2013, dated 2023)
